# Results: ChEMBL document CHEMBL1759971, “Substituted phenyl triazoles as selective inhibitors of 11β-Hydroxysteroid Dehydrogenase Type 1” (Bioorg Med Chem Lett, 2011)
# Assays:
# [1] = biological target: T1, Nuclear receptor subfamily 1 group I member 2 (Homo sapiens, UniProt O75469); assay: Agonist activity at PXR at 10 uM; type: functional
# T1 sequence (O75469 whole entry): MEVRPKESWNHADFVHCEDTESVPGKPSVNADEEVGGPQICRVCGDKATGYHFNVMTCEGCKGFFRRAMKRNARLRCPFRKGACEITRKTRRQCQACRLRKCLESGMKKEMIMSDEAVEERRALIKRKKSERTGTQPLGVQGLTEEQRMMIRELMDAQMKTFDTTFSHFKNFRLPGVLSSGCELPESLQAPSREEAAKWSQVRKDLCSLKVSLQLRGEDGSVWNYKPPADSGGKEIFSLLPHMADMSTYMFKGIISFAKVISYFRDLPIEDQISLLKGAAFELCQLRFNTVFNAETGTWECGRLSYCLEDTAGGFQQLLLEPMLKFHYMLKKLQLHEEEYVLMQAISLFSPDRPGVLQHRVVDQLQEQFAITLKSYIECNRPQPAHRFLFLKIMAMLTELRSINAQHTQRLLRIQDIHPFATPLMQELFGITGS
# [2] = biological target: T2, 11-beta-hydroxysteroid dehydrogenase type 2 (Homo sapiens, UniProt P80365); assay: Inhibition of human 11beta-HSD2
# T2 sequence (P80365 whole entry): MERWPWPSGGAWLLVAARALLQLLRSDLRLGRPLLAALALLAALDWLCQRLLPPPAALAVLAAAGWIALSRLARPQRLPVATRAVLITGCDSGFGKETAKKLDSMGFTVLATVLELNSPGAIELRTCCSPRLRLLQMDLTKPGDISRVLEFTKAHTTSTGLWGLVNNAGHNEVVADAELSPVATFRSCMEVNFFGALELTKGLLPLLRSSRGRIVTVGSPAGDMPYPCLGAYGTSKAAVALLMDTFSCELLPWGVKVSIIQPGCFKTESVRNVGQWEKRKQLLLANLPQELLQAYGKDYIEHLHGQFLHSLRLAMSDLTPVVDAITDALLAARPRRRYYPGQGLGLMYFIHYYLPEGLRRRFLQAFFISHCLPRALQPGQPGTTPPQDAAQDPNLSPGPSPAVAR
# [3] = biological target: 11-beta-hydroxysteroid dehydrogenase 1 (Mus musculus, UniProt P50172); assay: Inhibition of mouse 11beta-HSD1 expressed in CHO-K1 cells assessed as conversion of [3H]cortisone to [3H]cortisol by scintillation counting; type: cell-based
# [4] = biological target: T1, Nuclear receptor subfamily 1 group I member 2; assay: Agonist activity at PXR; type: functional
# [5] = biological target: T3, 11-beta-hydroxysteroid dehydrogenase type 2 (Mus musculus, UniProt P51661); assay: Inhibition of mouse 11beta-HSD2
# T3 sequence (P51661 whole entry): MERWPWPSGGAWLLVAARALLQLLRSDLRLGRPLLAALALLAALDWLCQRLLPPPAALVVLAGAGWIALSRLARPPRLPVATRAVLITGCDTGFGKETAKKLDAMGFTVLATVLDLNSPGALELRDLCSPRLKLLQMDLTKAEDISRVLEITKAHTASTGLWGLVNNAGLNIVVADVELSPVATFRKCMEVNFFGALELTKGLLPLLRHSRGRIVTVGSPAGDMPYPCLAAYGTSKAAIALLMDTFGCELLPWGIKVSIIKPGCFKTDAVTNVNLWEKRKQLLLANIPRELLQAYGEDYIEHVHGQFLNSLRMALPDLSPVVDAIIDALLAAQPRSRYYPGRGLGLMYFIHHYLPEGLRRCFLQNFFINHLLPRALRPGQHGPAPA
# [6] = biological target: 11-beta-hydroxysteroid dehydrogenase 1 (Homo sapiens, UniProt P28845); assay: Inhibition of human 11beta-HSD1 expressed in CHO-K1 cells assessed as conversion of [3H]cortisone to [3H]cortisol by scintillation counting; type: cell-based
# Mus musculus [7] = assay: Inhibition of 11beta-HSD1 in ICR mouse assessed as conversion of [3H]cortisone to [3H]cortisol at 10 mg/kg, po after 4 hrs by scintillation counting; type: functional
# Mus musculus [8] = assay: Inhibition of 11beta-HSD1 in ICR mouse assessed as conversion of [3H]cortisone to [3H]cortisol at 10 mg/kg, po after 16 hrs by scintillation counting; type: functional
# Chain of 11-beta-hydroxysteroid dehydrogenase 1 (Homo sapiens, UniProt P28845) (P28845 whole entry): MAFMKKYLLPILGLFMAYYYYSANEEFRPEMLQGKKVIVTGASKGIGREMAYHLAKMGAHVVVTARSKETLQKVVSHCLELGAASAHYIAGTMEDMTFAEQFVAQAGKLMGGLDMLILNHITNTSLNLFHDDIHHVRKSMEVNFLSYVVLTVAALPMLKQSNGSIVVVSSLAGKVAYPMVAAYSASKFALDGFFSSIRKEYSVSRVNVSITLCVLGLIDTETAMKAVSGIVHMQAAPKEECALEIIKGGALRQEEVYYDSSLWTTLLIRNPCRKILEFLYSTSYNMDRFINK
# Chain of 11-beta-hydroxysteroid dehydrogenase 1 (Mus musculus, UniProt P50172) (P50172 whole entry): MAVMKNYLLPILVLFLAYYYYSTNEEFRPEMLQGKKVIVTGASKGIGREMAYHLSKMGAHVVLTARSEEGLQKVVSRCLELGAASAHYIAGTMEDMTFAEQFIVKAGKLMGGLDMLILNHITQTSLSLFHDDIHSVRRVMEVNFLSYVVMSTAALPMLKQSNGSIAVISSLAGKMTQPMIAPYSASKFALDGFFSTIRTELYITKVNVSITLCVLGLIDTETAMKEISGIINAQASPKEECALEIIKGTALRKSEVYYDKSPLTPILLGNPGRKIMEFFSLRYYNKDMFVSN
Activity [1] [%],IC50 [2] [nM],IC50 [3] [nM],EC50 [4] [nM],IC50 [5] [nM],IC50 [6] [nM],Compound,inhibition in vivo at 10 mg/kg (Mus musculus [7]) [%],inhibition in vivo at 10 mg/kg (Mus musculus [8]) [%]
10,> 4000,62,> 30000,> 4000,250,Cn1c(-c2ccc(C(=O)N3CCC3)cc2)nnc1C1(c2ccc(Cl)cc2)CCC1,,
-1,> 4000,87,> 30000,> 4000,76,Cn1c(-c2ccc(C(=O)O)cc2)nnc1C1(c2ccc(Cl)cc2)CCC1,10,-8
16,> 4000,1,> 30000,> 4000,< 1,Cn1c(-c2ccc(C(N)=O)cc2Cl)nnc1C1(c2ccc(Cl)cc2)CCC1,57,12
45,> 4000,1,> 30000,> 4000,38,Cn1c(-c2ccc(-c3cccnc3)cc2O)nnc1C1(c2ccc(Cl)cc2)CCC1,59,10
18,> 4000,7.8,> 30000,> 4000,69,CCNC(=O)c1ccc(-c2nnc(C3(c4ccc(Cl)cc4)CCC3)n2C)cc1,71,0
35,> 4000,2,> 30000,> 4000,14,COc1ncc(-c2ccc(-c3nnc(C4(c5ccc(Cl)cc5)CCC4)n3C)cc2)c(OC)n1,59,10
78,1300,< 1,3000,,,Cn1c(-c2ccc(-c3ccsc3)cc2)nnc1C1(c2ccc(Cl)cc2)CCC1,81,33
18,> 4000,< 1,> 30000,> 4000,9.5,Cc1cc(C(=O)Nc2ccc(-c3nnc(C4(c5ccc(Cl)cc5)CCC4)n3C)cc2)c(C)o1,91,81
16,> 4000,200,> 30000,> 4000,560,Cn1c(-c2ccc(C(=O)N3CCOCC3)cc2)nnc1C1(c2ccc(Cl)cc2)CCC1,,
4,> 4000,6.6,> 30000,> 4000,470,Cn1c(-c2ccc(C(=O)NC3CCC3)cc2)nnc1C1(c2ccc(Cl)cc2)CCC1,,
21,> 4000,26,> 30000,> 4000,1,Cn1c(-c2ccc(C(N)=O)cc2)nnc1C1(c2ccc(Cl)cc2)CCC1,35,4
22,3100,15,> 30000,,,Cn1c(-c2ccc(N)cc2)nnc1C1(c2ccc(Cl)cc2)CCC1,77,12
9,> 4000,2.9,> 30000,> 4000,1.2,Cn1c(-c2ccc(-c3cnc(O)nc3)cc2)nnc1C1(c2ccc(Cl)cc2)CCC1,,
7,> 4000,2.6,> 30000,> 4000,1.5,Cn1c(-c2ccc(-c3cncnc3)cc2)nnc1C1(c2ccc(Cl)cc2)CCC1,46,-4
35,2300,< 1,> 30000,,,Cn1c(-c2ccc(N)cc2Cl)nnc1C1(c2ccc(Cl)cc2)CCC1,90,38
65,> 4000,0.75,4600,> 4000,1.5,COc1cc(-c2cccnc2)ccc1-c1nnc(C2(c3ccc(Cl)cc3)CCC2)n1C,82,21
-7,> 4000,150,> 30000,> 4000,2.2,Cn1c(-c2ccc(C(N)=O)cc2C(N)=O)nnc1C1(c2ccc(Cl)cc2)CCC1,-11,0
14,> 4000,1.5,> 30000,> 4000,1.5,Cn1c(-c2ccc(-c3ccc(Cl)nn3)cc2)nnc1C1(c2ccc(Cl)cc2)CCC1,40,-7
14,> 4000,11,> 30000,> 4000,300,Cn1c(-c2ccc(C(=O)NC3CC3)cc2)nnc1C1(c2ccc(Cl)cc2)CCC1,,
26,> 4000,3.4,> 30000,> 4000,4.8,Cc1noc(C)c1-c1ccc(-c2nnc(C3(c4ccc(Cl)cc4)CCC3)n2C)cc1,63,9
55,> 4000,1,8700,> 4000,8.7,Cn1c(-c2ccc(NC(=O)c3cccs3)cc2)nnc1C1(c2ccc(Cl)cc2)CCC1,63,2
74,> 4000,1.7,4800,> 4000,2.8,Cn1c(-c2ccc(-c3cnccn3)cc2F)nnc1C1(c2ccc(Cl)cc2)CCC1,91,81
90,,,1700,,,Cn1c(-c2ccc(-c3ccccc3)cc2)nnc1C1(c2ccc(Cl)cc2)CCC1,,
100,,,1600,,,Clc1ccc(C2(c3nnc4n3CCCCCC4)CCC2)cc1,,
29,> 4000,4.1,23000,> 4000,1.1,Cn1c(-c2ccc(-c3cnoc3)cc2)nnc1C1(c2ccc(Cl)cc2)CCC1,,
35,> 4000,,,,,Cn1c(-c2ccc(-c3cccnc3)cc2Cl)nnc1C1(c2ccc(Cl)cc2)CCC1,,
4,> 4000,68,> 30000,> 4000,120,Cn1c(-c2ccc(-c3cnccn3)cc2C(N)=O)nnc1C1(c2ccc(Cl)cc2)CCC1,,
12,> 4000,1.1,> 30000,> 4000,4.8,Cn1c(-c2ccc(-c3ccc(N)nn3)cc2)nnc1C1(c2ccc(Cl)cc2)CCC1,,
